From ChEMBL document CHEMBL1133905, “Novel lipase-catalysed enantioselective deacetylation of (+/-)-5-acetoxy-3-(4-fluorophenyl)-2-phenylisoxazolidine” (2001)
In brackets after ≈: the same amount, converted by molar mass.

Legend:
[1] = system: Mycobacterium tuberculosis; experiment: Inhibition against Mycobacterium tuberculosis; format: functional
[2] = system: Mycobacterium tuberculosis; experiment: Inhibition against Mycobacterium tuberculosis at 6.25 ug/mL; format: functional

## CC(=O)OC1CC(c2ccc(F)cc2)N(c2ccccc2)O1 (racemic)
[1]
  MIC: 6.25 µg/mL (≈ 20.7 µM)
[2]
  inhibition at 6.25 µg/mL: 78%
